We go through nine cell lines from the supplement of paper PMC10307832.

Assay in all cases: relative viability (nuclei count vs DMSO), 5 days (fraction); higher = more cells survive
Compound in the experiment “AZD8055 + Pictilisib”: COc1ccc(-c2ccc3c(N4CCOC[C@@H]4C)nc(N4CCOC[C@@H]4C)nc3n2)cc1CO [AZD8055] + CS(=O)(=O)N1CCN(Cc2cc3nc(-c4cccc5[nH]ncc45)nc(N4CCOCC4)c3s2)CC1 [Pictilisib] (partner 1 µM)
The method, boiled down:
(§1)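 Medians of duplicate plates are given as relative viability. That measure is the nuclei count in treated wells divided by the count in vehicle wells. Counts were taken on 4× images of lung cancer cell lines in 1536-well plates, 5 days after pin-tool dosing the day after seeding with one drug alone or a fixed anchor-drug dose plus five library-drug doses (not always all listed) in √10 steps.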

Compound in the experiment “AZD8055 + Phenformin”: COc1ccc(-c2ccc3c(N4CCOC[C@@H]4C)nc(N4CCOC[C@@H]4C)nc3n2)cc1CO [AZD8055] + N=C(N)NC(=N)NCCc1ccccc1 [Phenformin] (partner 250 µM)
The method, boiled down:
as §1

Compound in the experiment “AZD8055 + Palbociclib”: COc1ccc(-c2ccc3c(N4CCOC[C@@H]4C)nc(N4CCOC[C@@H]4C)nc3n2)cc1CO [AZD8055] + CC(=O)c1c(C)c2cnc(Nc3ccc(N4CCNCC4)cn3)nc2n(C2CCCC2)c1=O [Palbociclib] (partner 0.5 µM)
The method, boiled down: as §1

Compound in the experiment “AZD8055 + Decitabine”: COc1ccc(-c2ccc3c(N4CCOC[C@@H]4C)nc(N4CCOC[C@@H]4C)nc3n2)cc1CO [AZD8055] + Nc1ncn([C@H]2C[C@H](O)[C@@H](CO)O2)c(=O)n1 [Decitabine] (partner 2 µM)
The gist of the method:
as §1

NCI-H2087: the relative viability with AZD8055 + Pictilisib (first compound 0.01 µM) was determined as 1.06; in the experiment with AZD8055 + Pictilisib (first compound 0.03162 µM), 0.704; with AZD8055 + Pictilisib (first compound 0.1 µM) it was 0.574; in the experiment with AZD8055 + Pictilisib (first compound 0.3162 µM), 0.446; with AZD8055 + Pictilisib (first compound 1 µM), 0.328; with AZD8055 + Phenformin (first compound 0.01 µM) it was 0.555. The relative viability stood at 0.41 in the experiment with AZD8055 + Phenformin (first compound 0.03162 µM); 0.422 in the experiment with AZD8055 + Phenformin (first compound 0.1 µM); 0.242 with AZD8055 + Phenformin (first compound 0.3162 µM); 0.232 with AZD8055 + Phenformin (first compound 1 µM); 0.212 with AZD8055 + Palbociclib (first compound 0.01 µM); 0.198 with AZD8055 + Palbociclib (first compound 0.03162 µM). The relative viability in the experiment with AZD8055 + Palbociclib (first compound 0.1 µM) is 0.159; with AZD8055 + Palbociclib (first compound 0.3162 µM) it was 0.113; with AZD8055 + Palbociclib (first compound 1 µM) it was 0.141; in the experiment with AZD8055 + Decitabine (first compound 0.01 µM), 0.28; with AZD8055 + Decitabine (first compound 0.03162 µM) it was 0.182; with AZD8055 + Decitabine (first compound 0.1 µM), 0.236. Also, the relative viability is 0.153 in the experiment with AZD8055 + Decitabine (first compound 0.3162 µM) and 0.113 with AZD8055 + Decitabine (first compound 1 µM).

With NCI-H2228, the relative viability in the experiment with AZD8055 + Pictilisib (first compound 0.01 µM) amounted to 0.244; with AZD8055 + Pictilisib (first compound 0.03162 µM), 0.273; with AZD8055 + Pictilisib (first compound 0.1 µM), 0.159; with AZD8055 + Pictilisib (first compound 0.3162 µM), 0.263; with AZD8055 + Pictilisib (first compound 1 µM), 0.287; with AZD8055 + Phenformin (first compound 0.01 µM), 0.307. The relative viability with AZD8055 + Phenformin (first compound 0.03162 µM) was 0.205; with AZD8055 + Phenformin (first compound 0.1 µM), 0.188; with AZD8055 + Phenformin (first compound 0.3162 µM), 0.133; in the experiment with AZD8055 + Phenformin (first compound 1 µM) it was 0.212; with AZD8055 + Palbociclib (first compound 0.01 µM), 0.696; in the experiment with AZD8055 + Palbociclib (first compound 0.03162 µM) it was 0.477. Further, the relative viability with AZD8055 + Palbociclib (first compound 0.1 µM) stood at 0.388; with AZD8055 + Palbociclib (first compound 0.3162 µM), 0.168; in the experiment with AZD8055 + Palbociclib (first compound 1 µM), 0.166.

On to NCI-H727, for which the relative viability stood at 0.4 with AZD8055 + Pictilisib (first compound 0.01 µM); 0.379 in the experiment with AZD8055 + Pictilisib (first compound 0.03162 µM); 0.28 in the experiment with AZD8055 + Pictilisib (first compound 0.1 µM); 0.225 with AZD8055 + Pictilisib (first compound 0.3162 µM); 0.283 in the experiment with AZD8055 + Pictilisib (first compound 1 µM); 0.542 with AZD8055 + Phenformin (first compound 0.01 µM). In addition, the relative viability with AZD8055 + Phenformin (first compound 0.03162 µM) is 0.38; in the experiment with AZD8055 + Phenformin (first compound 0.1 µM), 0.584; in the experiment with AZD8055 + Phenformin (first compound 0.3162 µM), 0.33; with AZD8055 + Phenformin (first compound 1 µM), 0.327; in the experiment with AZD8055 + Palbociclib (first compound 0.01 µM), 0.621; with AZD8055 + Palbociclib (first compound 0.03162 µM) it was 0.635. The relative viability with AZD8055 + Palbociclib (first compound 0.1 µM) was 0.572; with AZD8055 + Palbociclib (first compound 0.3162 µM), 0.573; in the experiment with AZD8055 + Palbociclib (first compound 1 µM), 0.51; in the experiment with AZD8055 + Decitabine (first compound 0.01 µM), 0.875; with AZD8055 + Decitabine (first compound 0.03162 µM) it was 0.85; with AZD8055 + Decitabine (first compound 0.1 µM) it was 0.736. Moreover, the relative viability with AZD8055 + Decitabine (first compound 0.3162 µM) turned out to be 0.498; with AZD8055 + Decitabine (first compound 1 µM) it was 0.616.

NCI-H650: the relative viability with AZD8055 + Pictilisib (first compound 0.01 µM) is 0.905; in the experiment with AZD8055 + Pictilisib (first compound 0.03162 µM) it was 0.736; in the experiment with AZD8055 + Pictilisib (first compound 0.1 µM), 0.623; in the experiment with AZD8055 + Pictilisib (first compound 0.3162 µM) it was 0.307; in the experiment with AZD8055 + Pictilisib (first compound 1 µM), 0.304; in the experiment with AZD8055 + Phenformin (first compound 0.01 µM) it was 0.473. Besides, the relative viability was 0.378 with AZD8055 + Phenformin (first compound 0.03162 µM); 0.429 in the experiment with AZD8055 + Phenformin (first compound 0.1 µM); 0.305 with AZD8055 + Phenformin (first compound 0.3162 µM); 0.302 with AZD8055 + Phenformin (first compound 1 µM); 0.371 with AZD8055 + Palbociclib (first compound 0.01 µM); 0.307 with AZD8055 + Palbociclib (first compound 0.03162 µM). The relative viability amounted to 0.273 in the experiment with AZD8055 + Palbociclib (first compound 0.1 µM); 0.196 with AZD8055 + Palbociclib (first compound 0.3162 µM); 0.165 with AZD8055 + Palbociclib (first compound 1 µM); 0.35 with AZD8055 + Decitabine (first compound 0.01 µM); 0.278 with AZD8055 + Decitabine (first compound 0.03162 µM); 0.333 in the experiment with AZD8055 + Decitabine (first compound 0.1 µM). Also, the relative viability amounted to 0.29 with AZD8055 + Decitabine (first compound 0.3162 µM) and 0.275 with AZD8055 + Decitabine (first compound 1 µM).

In the case of NCI-H520, the relative viability came to 0.301 with AZD8055 + Pictilisib (first compound 0.01 µM); 0.19 with AZD8055 + Pictilisib (first compound 0.03162 µM); 0.202 with AZD8055 + Pictilisib (first compound 0.1 µM); 0.163 in the experiment with AZD8055 + Pictilisib (first compound 0.3162 µM); 0.159 with AZD8055 + Pictilisib (first compound 1 µM); 0.467 with AZD8055 + Phenformin (first compound 0.01 µM). Also, the relative viability was 0.219 with AZD8055 + Phenformin (first compound 0.03162 µM); 0.211 with AZD8055 + Phenformin (first compound 0.1 µM); 0.158 with AZD8055 + Phenformin (first compound 0.3162 µM); 0.156 with AZD8055 + Phenformin (first compound 1 µM); 0.167 in the experiment with AZD8055 + Palbociclib (first compound 0.01 µM); 0.15 with AZD8055 + Palbociclib (first compound 0.03162 µM). Also, the relative viability with AZD8055 + Palbociclib (first compound 0.1 µM) was determined as 0.156; in the experiment with AZD8055 + Palbociclib (first compound 0.3162 µM), 0.141; with AZD8055 + Palbociclib (first compound 1 µM), 0.161; in the experiment with AZD8055 + Decitabine (first compound 0.01 µM), 0.486; in the experiment with AZD8055 + Decitabine (first compound 0.03162 µM), 0.242; with AZD8055 + Decitabine (first compound 0.1 µM), 0.229. The relative viability with AZD8055 + Decitabine (first compound 0.3162 µM) was found to be 0.176; in the experiment with AZD8055 + Decitabine (first compound 1 µM), 0.165.

Turning to EBC-1, the relative viability in the experiment with AZD8055 + Pictilisib (first compound 0.01 µM) came to 0.303; with AZD8055 + Pictilisib (first compound 0.03162 µM), 0.266; in the experiment with AZD8055 + Pictilisib (first compound 0.1 µM) it was 0.206; in the experiment with AZD8055 + Pictilisib (first compound 0.3162 µM), 0.197; with AZD8055 + Pictilisib (first compound 1 µM), 0.19.

For NCI-H661, the relative viability with AZD8055 + Pictilisib (first compound 0.01 µM) stood at 0.394; in the experiment with AZD8055 + Pictilisib (first compound 0.03162 µM), 0.424; with AZD8055 + Pictilisib (first compound 0.1 µM) it was 0.322; in the experiment with AZD8055 + Pictilisib (first compound 0.3162 µM), 0.302; in the experiment with AZD8055 + Pictilisib (first compound 1 µM) it was 0.27; with AZD8055 + Phenformin (first compound 0.01 µM), 0.245. For the same cell line, the relative viability in the experiment with AZD8055 + Phenformin (first compound 0.03162 µM) stood at 0.262; in the experiment with AZD8055 + Phenformin (first compound 0.1 µM), 0.287; with AZD8055 + Phenformin (first compound 0.3162 µM) it was 0.248; in the experiment with AZD8055 + Phenformin (first compound 1 µM), 0.261; in the experiment with AZD8055 + Palbociclib (first compound 0.01 µM), 0.37; in the experiment with AZD8055 + Palbociclib (first compound 0.03162 µM), 0.368. The relative viability with AZD8055 + Palbociclib (first compound 0.1 µM) amounted to 0.303; with AZD8055 + Palbociclib (first compound 0.3162 µM), 0.291; in the experiment with AZD8055 + Palbociclib (first compound 1 µM), 0.362; with AZD8055 + Decitabine (first compound 0.01 µM), 0.502; in the experiment with AZD8055 + Decitabine (first compound 0.03162 µM), 0.482; in the experiment with AZD8055 + Decitabine (first compound 0.1 µM), 0.449. In addition, the relative viability in the experiment with AZD8055 + Decitabine (first compound 0.3162 µM) was determined as 0.359; in the experiment with AZD8055 + Decitabine (first compound 1 µM) it was 0.331.

As to NCI-H1299, the relative viability in the experiment with AZD8055 + Pictilisib (first compound 0.01 µM) amounted to 0.635; with AZD8055 + Pictilisib (first compound 0.03162 µM), 0.572; with AZD8055 + Pictilisib (first compound 0.1 µM), 0.363; in the experiment with AZD8055 + Pictilisib (first compound 0.3162 µM), 0.24; in the experiment with AZD8055 + Pictilisib (first compound 1 µM), 0.233.

For the cell line LK-2, the relative viability in the experiment with AZD8055 + Pictilisib (first compound 0.01 µM) is 0.571; with AZD8055 + Pictilisib (first compound 0.03162 µM), 0.438; in the experiment with AZD8055 + Pictilisib (first compound 0.1 µM), 0.368; in the experiment with AZD8055 + Pictilisib (first compound 0.3162 µM), 0.335; with AZD8055 + Pictilisib (first compound 1 µM), 0.195; with AZD8055 + Phenformin (first compound 0.01 µM) it was 0.234. In addition, the relative viability in the experiment with AZD8055 + Phenformin (first compound 0.03162 µM) was 0.186; with AZD8055 + Phenformin (first compound 0.1 µM), 0.118; with AZD8055 + Phenformin (first compound 0.3162 µM), 0.198; with AZD8055 + Phenformin (first compound 1 µM), 0.239; with AZD8055 + Palbociclib (first compound 0.01 µM) it was 0.387; in the experiment with AZD8055 + Palbociclib (first compound 0.03162 µM), 0.399. For the same cell line, the relative viability with AZD8055 + Palbociclib (first compound 0.1 µM) amounted to 0.347; with AZD8055 + Palbociclib (first compound 0.3162 µM), 0.17; in the experiment with AZD8055 + Palbociclib (first compound 1 µM), 0.102; with AZD8055 + Decitabine (first compound 0.01 µM), 0.273; with AZD8055 + Decitabine (first compound 0.03162 µM) it was 0.19; with AZD8055 + Decitabine (first compound 0.1 µM), 0.156. The results for the relative viability with AZD8055 + Decitabine (first compound 0.3162 µM) and with AZD8055 + Decitabine (first compound 1 µM) were 0.146 and 0.144, respectively.
